Test results taken from ChEMBL document CHEMBL5724914, “Linking interpersonal differences in gut microbiota composition and drug biotransformation activity” (2024).

Assay: (§1) The drug is tested on Z-025 corresponding to rabbit gut metagenome with ENA study accession number: PRJEB37062 and ENA sample accession number: ERS12561824 for biotransformation under anaerobic condition. The drug concentrations were measured over 9 timepoints collected between 0 and 24 hours of incubation by liquid-chromatography-coupled mass spectrometry (LC–MS)
Settings: 2 µM
Further: call rule not given here.

Bacterial Biotransformation | SMILES
Compound metabolized | Cc1ccccc1N1C(=O)c2cc(S(N)(=O)=O)c(Cl)cc2NC1C (stereo not given) [METOLAZONE]
Compound NOT metabolized | CC(C)(C#N)c1cc(Cn2cncn2)cc(C(C)(C)C#N)c1 [ANASTROZOLE]

Assay: as §1, with “Z-023” for “Z-025”, “to” for “to rabbit gut”, “ERS12561822” for “ERS12561824”
Settings: 2 µM

Bacterial Biotransformation | SMILES
Compound NOT metabolized | Cc1ccccc1N1C(=O)c2cc(S(N)(=O)=O)c(Cl)cc2NC1C (stereo not given) [METOLAZONE]
Compound metabolized | CC(C)(C#N)c1cc(Cn2cncn2)cc(C(C)(C)C#N)c1 [ANASTROZOLE]

Assay: as §1, with “Z-022” for “Z-025”, “mouse” for “rabbit”, “ERS12561821” for “ERS12561824”
Settings: 2 µM

Bacterial Biotransformation | SMILES
Compound NOT metabolized | Cc1ccccc1N1C(=O)c2cc(S(N)(=O)=O)c(Cl)cc2NC1C (stereo not given) [METOLAZONE]
Compound metabolized | CC(C)(C#N)c1cc(Cn2cncn2)cc(C(C)(C)C#N)c1 [ANASTROZOLE]

Assay: as §1, with “Z-021” for “Z-025”, “to” for “to rabbit gut”, “ERS12561820” for “ERS12561824”
Settings: 2 µM

Bacterial Biotransformation | SMILES
Compound NOT metabolized | Cc1ccccc1N1C(=O)c2cc(S(N)(=O)=O)c(Cl)cc2NC1C (stereo not given) [METOLAZONE]
Compound metabolized | CC(C)(C#N)c1cc(Cn2cncn2)cc(C(C)(C)C#N)c1 [ANASTROZOLE]

Assay: as §1, with “Z-011” for “Z-025”, “mouse” for “rabbit”, “ERS12561811” for “ERS12561824”
Settings: 2 µM

Bacterial Biotransformation | SMILES
Compound NOT metabolized | Cc1ccccc1N1C(=O)c2cc(S(N)(=O)=O)c(Cl)cc2NC1C (stereo not given) [METOLAZONE]
Compound NOT metabolized | CC(C)(C#N)c1cc(Cn2cncn2)cc(C(C)(C)C#N)c1 [ANASTROZOLE]

Assay: as §1, with “Z-006” for “Z-025”, “mouse” for “rabbit”, “ERS12561806” for “ERS12561824”
Settings: 2 µM

Bacterial Biotransformation | SMILES
Compound NOT metabolized | Cc1ccccc1N1C(=O)c2cc(S(N)(=O)=O)c(Cl)cc2NC1C (stereo not given) [METOLAZONE]
Compound NOT metabolized | CC(C)(C#N)c1cc(Cn2cncn2)cc(C(C)(C)C#N)c1 [ANASTROZOLE]

Assay: as §1, with “WLS-098” for “Z-025”, “human” for “rabbit”, “ERS12561754” for “ERS12561824”
Settings: 2 µM

Bacterial Biotransformation | SMILES
Compound metabolized | Cc1ccccc1N1C(=O)c2cc(S(N)(=O)=O)c(Cl)cc2NC1C (stereo not given) [METOLAZONE]
Compound metabolized | CC(C)(C#N)c1cc(Cn2cncn2)cc(C(C)(C)C#N)c1 [ANASTROZOLE]

Assay: as §1, with “WLS-052” for “Z-025”, “human” for “rabbit”, “ERS12561747” for “ERS12561824”
Settings: 2 µM

Bacterial Biotransformation | SMILES
Compound metabolized | Cc1ccccc1N1C(=O)c2cc(S(N)(=O)=O)c(Cl)cc2NC1C (stereo not given) [METOLAZONE]
Compound NOT metabolized | CC(C)(C#N)c1cc(Cn2cncn2)cc(C(C)(C)C#N)c1 [ANASTROZOLE]

Assay: as §1, with “WLS-039” for “Z-025”, “human” for “rabbit”, “ERS12561746” for “ERS12561824”
Settings: 2 µM

Bacterial Biotransformation | SMILES
Compound NOT metabolized | Cc1ccccc1N1C(=O)c2cc(S(N)(=O)=O)c(Cl)cc2NC1C (stereo not given) [METOLAZONE]
Compound NOT metabolized | CC(C)(C#N)c1cc(Cn2cncn2)cc(C(C)(C)C#N)c1 [ANASTROZOLE]

Assay: as §1, with “WLS-027” for “Z-025”, “human” for “rabbit”, “ERS12561744” for “ERS12561824”
Settings: 2 µM

Bacterial Biotransformation | SMILES
Compound NOT metabolized | Cc1ccccc1N1C(=O)c2cc(S(N)(=O)=O)c(Cl)cc2NC1C (stereo not given) [METOLAZONE]
Compound NOT metabolized | CC(C)(C#N)c1cc(Cn2cncn2)cc(C(C)(C)C#N)c1 [ANASTROZOLE]

Assay: as §1, with “WLS-010” for “Z-025”, “human” for “rabbit”, “ERS12561743” for “ERS12561824”
Settings: 2 µM

Bacterial Biotransformation | SMILES
Compound NOT metabolized | Cc1ccccc1N1C(=O)c2cc(S(N)(=O)=O)c(Cl)cc2NC1C (stereo not given) [METOLAZONE]
Compound NOT metabolized | CC(C)(C#N)c1cc(Cn2cncn2)cc(C(C)(C)C#N)c1 [ANASTROZOLE]

Settings: human gut metagenome, 24 h, 2 µM

Bacterial Biotransformation | SMILES
Compound NOT metabolized | Cc1ccccc1N1C(=O)c2cc(S(N)(=O)=O)c(Cl)cc2NC1C (stereo not given) [METOLAZONE]
Compound NOT metabolized | CC(C)(C#N)c1cc(Cn2cncn2)cc(C(C)(C)C#N)c1 [ANASTROZOLE]

Settings: human gut metagenome, 24 h, 2 µM
Remark: another data set of the same source

Bacterial Biotransformation | SMILES
Compound metabolized | Cc1ccccc1N1C(=O)c2cc(S(N)(=O)=O)c(Cl)cc2NC1C (stereo not given) [METOLAZONE]
Compound metabolized | CC(C)(C#N)c1cc(Cn2cncn2)cc(C(C)(C)C#N)c1 [ANASTROZOLE]

Settings: human gut metagenome, 24 h, 2 µM
Remark: another data set of the same source

Bacterial Biotransformation | SMILES
Compound metabolized | Cc1ccccc1N1C(=O)c2cc(S(N)(=O)=O)c(Cl)cc2NC1C (stereo not given) [METOLAZONE]
Compound NOT metabolized | CC(C)(C#N)c1cc(Cn2cncn2)cc(C(C)(C)C#N)c1 [ANASTROZOLE]

Settings: human gut metagenome, 24 h, 2 µM
Remark: another data set of the same source

Bacterial Biotransformation | SMILES
Compound metabolized | Cc1ccccc1N1C(=O)c2cc(S(N)(=O)=O)c(Cl)cc2NC1C (stereo not given) [METOLAZONE]
Compound metabolized | CC(C)(C#N)c1cc(Cn2cncn2)cc(C(C)(C)C#N)c1 [ANASTROZOLE]

Settings: human gut metagenome, 24 h, 2 µM
Remark: another data set of the same source

Bacterial Biotransformation | SMILES
Compound NOT metabolized | Cc1ccccc1N1C(=O)c2cc(S(N)(=O)=O)c(Cl)cc2NC1C (stereo not given) [METOLAZONE]
Compound NOT metabolized | CC(C)(C#N)c1cc(Cn2cncn2)cc(C(C)(C)C#N)c1 [ANASTROZOLE]

Settings: human gut metagenome, 24 h, 2 µM
Remark: another data set of the same source

Bacterial Biotransformation | SMILES
Compound NOT metabolized | Cc1ccccc1N1C(=O)c2cc(S(N)(=O)=O)c(Cl)cc2NC1C (stereo not given) [METOLAZONE]
Compound metabolized | CC(C)(C#N)c1cc(Cn2cncn2)cc(C(C)(C)C#N)c1 [ANASTROZOLE]

Settings: human gut metagenome, 24 h, 2 µM
Remark: another data set of the same source

Bacterial Biotransformation | SMILES
Compound NOT metabolized | Cc1ccccc1N1C(=O)c2cc(S(N)(=O)=O)c(Cl)cc2NC1C (stereo not given) [METOLAZONE]
Compound NOT metabolized | CC(C)(C#N)c1cc(Cn2cncn2)cc(C(C)(C)C#N)c1 [ANASTROZOLE]

Settings: human gut metagenome, 24 h, 2 µM
Remark: another data set of the same source

Bacterial Biotransformation | SMILES
Compound NOT metabolized | Cc1ccccc1N1C(=O)c2cc(S(N)(=O)=O)c(Cl)cc2NC1C (stereo not given) [METOLAZONE]
Compound NOT metabolized | CC(C)(C#N)c1cc(Cn2cncn2)cc(C(C)(C)C#N)c1 [ANASTROZOLE]

Settings: human gut metagenome, 24 h, 2 µM
Remark: another data set of the same source

Bacterial Biotransformation | SMILES
Compound metabolized | Cc1ccccc1N1C(=O)c2cc(S(N)(=O)=O)c(Cl)cc2NC1C (stereo not given) [METOLAZONE]
Compound NOT metabolized | CC(C)(C#N)c1cc(Cn2cncn2)cc(C(C)(C)C#N)c1 [ANASTROZOLE]
